Laboratory results: US20260191968A1, “PROTAC DEGRADERS OF MLLT1 AND/OR MLLT3” (DARK BLUE THERAPEUTICS LTD, priority 2024, published 2026)

Target: T1, MLLT1 (Mus musculus, UniProt F6UGX7)
T1 construct: host or cells: NIH/3T3
T1 sequence (F6UGX7 1-547): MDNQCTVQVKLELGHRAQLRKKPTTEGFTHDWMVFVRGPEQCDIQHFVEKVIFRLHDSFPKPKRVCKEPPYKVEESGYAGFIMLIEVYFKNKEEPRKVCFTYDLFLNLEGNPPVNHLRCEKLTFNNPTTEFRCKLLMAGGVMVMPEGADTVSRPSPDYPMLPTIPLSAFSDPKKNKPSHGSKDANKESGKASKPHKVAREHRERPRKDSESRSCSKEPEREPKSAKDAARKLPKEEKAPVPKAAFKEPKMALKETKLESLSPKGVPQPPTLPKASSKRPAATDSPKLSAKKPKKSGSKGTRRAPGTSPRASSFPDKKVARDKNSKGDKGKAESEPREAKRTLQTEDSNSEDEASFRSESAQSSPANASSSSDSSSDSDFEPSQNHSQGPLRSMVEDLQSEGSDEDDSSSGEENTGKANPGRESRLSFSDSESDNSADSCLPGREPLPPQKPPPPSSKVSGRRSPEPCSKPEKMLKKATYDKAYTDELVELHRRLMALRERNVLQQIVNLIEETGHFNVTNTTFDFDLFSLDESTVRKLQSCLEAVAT
Assay: MLLT1 degradation assay in NIH/3T3 cells (JESS), dose response, 5 h
Format: cell-based
Experimental: MLLT1 degradation efficacy of compounds was tested in an automated chemiluminescent detection system (JESS, Cat #004-650). NIH/3T3 (#CRL-1658, ATCC) were seeded at a density of 0.5 million cells/well in a cell culture treated 6-well cell culture plate in 2 mL of complete medium (DMEM+10% FBS+1X Penicillin-Streptomycin) and incubated at 37° C., 5% CO2. The next day, 10 mM DMSO stocks were prepared, and cells were treated with eight concentrations of test compound, starting from 100 nM, 5-fold dilution, at a final DMSO concentration of 0.1% and incubated for 5 h at 37° C., 5% CO2. Post incubation, cells were washed with HBSS and lysed in 70 μL of RIPA buffer supplemented with Protease inhibitors (sc-24948; Santa Cruz). Protein estimation was done using BCA protein assay kit (23228; Pierce). […] Post run, data was analysed using “Compass for SW” software for chemiluminescent detection. […]
MLLT3 degradation efficacy of compounds was tested in an automated chemiluminescent detection system (JESS, Cat #004-650). […] Post run, data was analysed using “Compass for SW” software for chemiluminescent detection. […]

`CN1CCC[C@@H]1c1cc2cnc(NC(=O)c3ccc(CCCC#Cc4cccc5c4CN(C4CCC(=O)NC4=O)C5=O)cc3)cc2[nH]1` (stereo partly drawn) [Example 55, 4-(5-(2-(2,6-dioxopiperidin-3-yl)-1-oxoisoindolin-4-yl)pent-4-yn-1-yl)-N-(2-((R)-1-methylpyrrolidin-2-yl)-1H-pyrrolo[3,2-c]pyridin-6-yl)benzamide] was tested, and the Dmax (NIH3T3, read-out: MLLT1 Dmax in NIH/3T3 cells) was 96% and the DC50 (NIH/3T3 cells, 5 h) was 1.2 nM.
